Values of other authors as cited in patent US20100080768A1, “Compositions and Methods for the Treatment of Inflammatory Dermatosis and Other Pathological Conditions of the Skin” (priority 2008, published 2010).

Experiments:
[1] = not given; remark: listed apart in the source

solubility in water: free soluble
pka value [1]: 0.5
SMILES: NC(=O)c1cccnc1 [Nicotinamide, nicotinamide]
